Assay results as given in ChEMBL document CHEMBL1201862, “PubChem BioAssay data set” (2004).
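Tested at 5 concentrations; 48 h exposure; 96-well plates; endpoints linearly interpolated, else capped at highest concentration. The concentration for 50% growth inhibition is given as GI50.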 The source made the active and inactive calls. Cut-off read from the data, not from the text of the source: active = GI50 up to about 1.1 µM and inactive = higher.

Legend:
Test in all cases: inhibition of tumour cell growth, NCI panel, 48 h
[1] = test system: SK-OV-3
[2] = test system: SW-620
[3] = test system: EKVX
[4] = test system: OVCAR-3
[5] = test system: M19-MEL
[6] = test system: OVCAR-4
[7] = test system: DMS-114
[8] = test system: LOX IMVI
[9] = test system: RPMI-8226
[10] = test system: NCI-H522
[11] = test system: SF-295
[12] = test system: KM12
[13] = test system: MOLT-4
[14] = test system: SNB-75
[15] = test system: IGROV-1
[16] = test system: CCRF-CEM
[17] = test system: M14
[18] = test system: SF-539
[19] = test system: HT-29
[20] = test system: UACC-62
[21] = test system: A498
[22] = test system: COLO 205
[23] = test system: NCI-H460
[24] = test system: OVCAR-5
[25] = test system: HCC 2998
[26] = test system: CAKI-1
[27] = test system: ACHN
[28] = test system: UO-31
[29] = test system: Malme-3M
[30] = test system: SK-MEL-5
[31] = test system: SNB-19
[32] = test system: HCT-15
[33] = test system: DLD-1
[34] = test system: OVCAR-8
[35] = test system: K562
[36] = test system: SF-268
[37] = test system: U-251
[38] = test system: SR
[39] = test system: LXFL 529
[40] = test system: 786-0
[41] = test system: SN12C
[42] = test system: SK-MEL-28
[43] = test system: TK-10
[44] = test system: NCI-H226
[45] = test system: HOP-62
[46] = test system: HCT-116
[47] = test system: UACC-257
[48] = test system: DMS-273
[49] = test system: SK-MEL-2
[50] = test system: A549
[51] = test system: HL-60
[52] = test system: NCI-H23
[53] = test system: KM-20L2
[54] = test system: HOP-18
[55] = test system: HOP-92
[56] = test system: RXF 393
[57] = test system: XF498

Q: Which GI50 [1] does the source give for CCOC(=O)C(Cc1ccccc1)NC(=O)c1ccc(/N=N/N(C)C)cc1 (centres undefined) here?
A: > 100 µM (inactive)

Q: And the GI50 [2]?
A: > 100 µM (inactive)

Q: What about the GI50 [3] of the same compound?
A: > 100 µM (inactive)

Q: And the GI50 [4]?
A: > 100 µM (inactive)

Q: And the GI50 [5]?
A: > 100 µM (inactive)

Q: What about the GI50 [6] of the same compound?
A: > 100 µM (inactive)

Q: What about the GI50 [7] of the same compound?
A: > 100 µM (inactive)

Q: What about the GI50 [8] of the same compound?
A: > 100 µM (inactive)

Q: And the GI50 [9]?
A: > 100 µM (inactive)

Q: What about the GI50 [10] of the same compound?
A: > 100 µM (inactive)

Q: What about the GI50 [11] of the same compound?
A: > 100 µM (inactive)

Q: And the GI50 [12]?
A: > 100 µM (inactive)

Q: And the GI50 [13]?
A: > 100 µM (inactive)

Q: And the GI50 [14]?
A: > 100 µM (inactive)

Q: And the GI50 [15]?
A: > 100 µM (inactive)

Q: And the GI50 [16]?
A: > 100 µM (inactive)

Q: What about the GI50 [17] of the same compound?
A: > 100 µM (inactive)

Q: And the GI50 [18]?
A: > 100 µM (inactive)

Q: What about the GI50 [19] of the same compound?
A: > 100 µM (inactive)

Q: What about the GI50 [20] of the same compound?
A: > 100 µM (inactive)

Q: What about the GI50 [21] of the same compound?
A: > 100 µM (inactive)

Q: And the GI50 [22]?
A: > 100 µM (inactive)

Q: And the GI50 [23]?
A: > 100 µM (inactive)

Q: What about the GI50 [24] of the same compound?
A: > 100 µM (inactive)

Q: What about the GI50 [25] of the same compound?
A: > 100 µM (inactive)

Q: And the GI50 [26]?
A: > 100 µM (inactive)

Q: What about the GI50 [27] of the same compound?
A: > 100 µM (inactive)

Q: And the GI50 [28]?
A: > 100 µM (inactive)

Q: What about the GI50 [29] of the same compound?
A: > 100 µM (inactive)

Q: What about the GI50 [30] of the same compound?
A: > 100 µM (inactive)

Q: And the GI50 [31]?
A: > 100 µM (inactive)

Q: What about the GI50 [32] of the same compound?
A: > 100 µM

Q: What about the GI50 [33] of the same compound?
A: > 100 µM (inactive)

Q: What about the GI50 [34] of the same compound?
A: > 100 µM (inactive)

Q: What about the GI50 [35] of the same compound?
A: > 100 µM (inactive)

Q: What about the GI50 [36] of the same compound?
A: > 100 µM (inactive)

Q: What about the GI50 [37] of the same compound?
A: > 100 µM (inactive)

Q: And the GI50 [38]?
A: > 100 µM (inactive)

Q: And the GI50 [39]?
A: > 100 µM (inactive)

Q: And the GI50 [40]?
A: > 100 µM (inactive)

Q: And the GI50 [41]?
A: > 100 µM (inactive)

Q: What about the GI50 [42] of the same compound?
A: > 100 µM (inactive)

Q: And the GI50 [43]?
A: > 100 µM (inactive)

Q: What about the GI50 [44] of the same compound?
A: > 100 µM (inactive)

Q: And the GI50 [45]?
A: > 100 µM (inactive)

Q: What about the GI50 [46] of the same compound?
A: > 100 µM (inactive)

Q: And the GI50 [47]?
A: > 100 µM (inactive)

Q: And the GI50 [48]?
A: > 100 µM (inactive)

Q: What about the GI50 [49] of the same compound?
A: > 100 µM (inactive)

Q: And the GI50 [50]?
A: > 100 µM (inactive)

Q: What about the GI50 [51] of the same compound?
A: > 100 µM (inactive)

Q: And the GI50 [52]?
A: > 100 µM (inactive)

Q: What does the source list for CO[C@H](/C(C)=C/C=C/C(C)=C/c1coc(C)n1)[C@H](C)[C@H]1C[C@@H](O)[C@@]2(C)O[C@H]2/C=C/[C@@H](C)[C@@H]2C[C@@H](CC(=O)O2)C[C@H]2O[C@@H]2C(=O)O1?
A: GI50 [1]: 1.03e-06 µM (active); GI50 [3]: 2.03e-06 µM (active); GI50 [53]: < 0.01 µM (active); GI50 [5]: < 0.0236 µM (active); GI50 [6]: 5.18e-06 µM (active); GI50 [7]: < 0.01 µM (active); GI50 [14]: < 0.0271 µM (active); GI50 [19]: 0.0133 µM (active); GI50 [20]: < 0.01 µM (active); GI50 [22]: < 0.01 µM (active); GI50 [24]: 0.000384 µM (active); GI50 [25]: < 0.01 µM (active); GI50 [29]: < 0.01 µM (active); GI50 [33]: 0.0147 µM (active); GI50 [35]: < 0.01 µM (active); GI50 [38]: < 0.01 µM (active); GI50 [39]: < 0.01 µM (active); GI50 [43]: 3.21e-06 µM (active); GI50 [47]: < 0.0283 µM (active); GI50 [48]: < 0.01 µM (active); GI50 [49]: < 0.01 µM (active); GI50 [50]: < 0.01 µM (active); GI50 [54]: 0.05 µM (active)

Q: What does the source list for CCc1cccc(C(C)C)c1NC(=O)C(=O)C1C(=O)NC(=O)NC1=O?
A: GI50 [1]: > 100 µM (inactive); GI50 [2]: > 100 µM (inactive); GI50 [3]: > 100 µM (inactive); GI50 [53]: > 100 µM (inactive); GI50 [4]: > 100 µM (inactive); GI50 [5]: > 100 µM (inactive); GI50 [6]: > 100 µM (inactive); GI50 [7]: > 100 µM (inactive); GI50 [8]: > 100 µM (inactive); GI50 [9]: > 100 µM (inactive); GI50 [10]: > 100 µM (inactive); GI50 [11]: > 100 µM (inactive); GI50 [12]: > 100 µM (inactive); GI50 [14]: 69.5 µM (inactive); GI50 [15]: > 100 µM (inactive); GI50 [16]: > 100 µM (inactive); GI50 [17]: > 100 µM (inactive); GI50 [18]: > 100 µM (inactive); GI50 [19]: > 100 µM (inactive); GI50 [20]: > 100 µM (inactive); GI50 [21]: > 100 µM (inactive); GI50 [22]: > 100 µM (inactive); GI50 [23]: > 100 µM (inactive); GI50 [24]: > 100 µM (inactive); GI50 [25]: > 100 µM (inactive); GI50 [26]: > 100 µM (inactive); GI50 [27]: > 100 µM (inactive); GI50 [28]: > 100 µM (inactive); GI50 [29]: > 100 µM (inactive); GI50 [30]: > 100 µM (inactive); GI50 [31]: > 100 µM (inactive); GI50 [32]: > 100 µM; GI50 [33]: > 100 µM (inactive); GI50 [55]: > 100 µM (inactive); GI50 [56]: > 100 µM (inactive); GI50 [34]: > 100 µM (inactive); GI50 [35]: > 100 µM (inactive); GI50 [36]: > 100 µM (inactive); GI50 [37]: > 100 µM (inactive); GI50 [38]: > 100 µM (inactive); GI50 [39]: > 100 µM (inactive); GI50 [40]: > 100 µM (inactive); GI50 [41]: > 100 µM (inactive); GI50 [42]: > 100 µM (inactive); GI50 [43]: > 100 µM (inactive); GI50 [44]: > 100 µM (inactive); GI50 [45]: > 100 µM (inactive); GI50 [46]: > 100 µM (inactive); GI50 [47]: > 100 µM (inactive); GI50 [50]: > 100 µM (inactive); GI50 [54]: > 100 µM (inactive); GI50 [51]: > 100 µM (inactive); GI50 [57]: > 100 µM (inactive); GI50 [52]: > 100 µM (inactive)
